This assay concerns VSV particles pseudotyped with EboV GP on CHO cells overexpressing NPC1. In kind it is cell-based, Chinese hamster.

From US9452992B2 (priority 2011, dated 2016) come the findings set out here.

Each structure is given as a SMILES string.

Regarding `O=C(CC12CC3CC(CC(C3)C1)C2)NCC(=O)N1CCN(Cc2ccccc2)CC1` [3.0, 2-((3r,5r,7r)-adamantan-1-yl)-N-(2-(4-benzylpiperazin-1-yl)-2-oxoethyl)acetamide], the “effect of NPC1 overexpression on antiviral activity” value was “conferred resistance”.

In the case of `COC(=O)c1ccc(COc2ccccc2CN2CCN(C(=O)CNC(=O)CC34CC5CC(CC(C5)C3)C4)CC2)cc1` [compound 3.48, methyl 4-((2-((4-(2-(2-((3r,5r,7r)-adamantan-1-yl)acetamido)acetyl)piperazin-1-yl)methyl)phenoxy)methyl)benzoate], the “effect of NPC1 overexpression on antiviral activity” value was “conferred resistance”.
